These results are taken from patent publication US20240131168A1, “NAPHTHALENE RING-CONTAINING COMPOUND, PHARMACEUTICAL COMPOSITION CONTAINING SAME, AND USE THEREOF” (JIANGSU YAHONG MEDITECH CO., LTD., priority 2021, published 2024).

For orientation: IC50 means the concentration that gives 50% inhibition. A higher IC50 goes with weaker potency. A word on the inhibition: it is the change of the read-out against control, counted positive when it falls.

One experiment deals with MCF-7. Kind of experiment: CellTiter-Glo cell proliferation inhibition, MCF-7 (Effect Example 2). The experiment is classed as cell-based. The note with it: Homo sapiens, MCF7, 144 h, MCF-7 (CTG), 6 days, starting concentration 10 μM. An outline of the steps:
(§1)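 MCF-7, TamR-MCF-7, and CRISPR-edited MCF-7 ER D538G or Y537S cells were seeded at 1,000 or 2,000 cells/well in EMEM and cultured 24 h. They were then exposed to a 4-fold, 10-point series (top 10 µM before addition to wells) for 6 days or 72 h at 37 °C. CellTiter-Glo luminescence gave IC50 and maximum % inhibition.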

The subject of a further experiment is TamR-MCF-7. Kind of experiment: CellTiter-Glo cell proliferation inhibition, TamR-MCF-7. Type of experiment: cell-based. Particulars: 144 h, TamR-MCF-7 (CTG), 6 days, starting concentration 10 μM. An outline of the steps:
as §1
(In general: ATP-based viability assays read luminescence as a measure of living cells.)

The test system of another experiment is MDA-MB-468. Kind of experiment: CellTiter-Glo cell proliferation inhibition, MDA-MB-468. Type of experiment: cell-based. Particulars: Homo sapiens, 144 h; MDA-MB-468 (CTG), 6 days, starting concentration 10 μM; read-out: IH % max (maximum inhibition percentage).
The next experiment addresses T1, estrogen receptor (Homo sapiens, UniProt P03372).
T1 sequence (P03372 1-595): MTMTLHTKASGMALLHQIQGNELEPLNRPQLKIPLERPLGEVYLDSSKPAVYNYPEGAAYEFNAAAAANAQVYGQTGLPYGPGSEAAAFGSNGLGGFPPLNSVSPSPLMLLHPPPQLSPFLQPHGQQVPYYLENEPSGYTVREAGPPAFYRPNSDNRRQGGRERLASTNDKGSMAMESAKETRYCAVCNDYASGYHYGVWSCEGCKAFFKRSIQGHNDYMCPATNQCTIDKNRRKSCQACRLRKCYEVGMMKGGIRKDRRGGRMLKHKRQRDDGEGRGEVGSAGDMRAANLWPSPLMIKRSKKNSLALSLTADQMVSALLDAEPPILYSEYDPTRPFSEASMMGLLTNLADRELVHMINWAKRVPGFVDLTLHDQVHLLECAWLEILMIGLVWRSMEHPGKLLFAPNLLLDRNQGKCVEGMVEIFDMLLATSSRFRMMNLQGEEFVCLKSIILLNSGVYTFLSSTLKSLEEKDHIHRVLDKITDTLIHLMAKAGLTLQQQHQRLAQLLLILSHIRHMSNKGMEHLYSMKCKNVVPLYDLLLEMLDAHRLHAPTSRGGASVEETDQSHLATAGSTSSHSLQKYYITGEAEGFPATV
Particulars: background section; cited from earlier work.

The mark [1] stands for this setting: read-out: IH % max (maximum inhibition percentage).

Take `C[C@]12CC[C@@H]3c4ccc(O)cc4C[C@@H](CCCCCCCCC[S+]([O-])CCCC(F)(F)C(F)(F)F)[C@H]3[C@@H]1CC[C@@H]2O` (stereo partly drawn) [Fulvestrant, fulvestrant, reference compound]: the IC50 came out at 1.6 nM in the experiment on MCF-7 and 115 nM in the experiment on TamR-MCF-7. In addition, the inhibition at up to 10 µM in the experiment with MCF-7 (setting [1]) turned out to be 80.7%; with TamR-MCF-7 (setting [1]) it was 71.8%; in the experiment on MDA-MB-468 it was 39.4%. The “maximum protein degradation rate” value at estrogen receptor is listed as “about 61%”.
